Laboratory results as given in US20250288573A1 (H. LEE MOFFITT CANCER CENTER AND RESEARCH INSTITUTE, INC., priority 2018, published 2025).
Where two headings read alike, the source gives them in different places.

Legend:
CRBN = target: T1, CRBN (Homo sapiens, UniProt Q96SW2); assay: Western blot for expression of CRBN relative to vinculin in human T cells (CRBN degradation); type: cell-based; settings: for remaining activity at 10 µM / remaining activity at 0.01 µM: read-out: Relative Density of CRBN (% of DMSO); for remaining activity at 0.01 µM: 24 h, 10nM, human T cells, 24 hours
T1 construct: endogenous in cells; host or cells: primary human T cells / CD8+ T cells from peripheral blood
T1 sequence (Q96SW2 whole entry): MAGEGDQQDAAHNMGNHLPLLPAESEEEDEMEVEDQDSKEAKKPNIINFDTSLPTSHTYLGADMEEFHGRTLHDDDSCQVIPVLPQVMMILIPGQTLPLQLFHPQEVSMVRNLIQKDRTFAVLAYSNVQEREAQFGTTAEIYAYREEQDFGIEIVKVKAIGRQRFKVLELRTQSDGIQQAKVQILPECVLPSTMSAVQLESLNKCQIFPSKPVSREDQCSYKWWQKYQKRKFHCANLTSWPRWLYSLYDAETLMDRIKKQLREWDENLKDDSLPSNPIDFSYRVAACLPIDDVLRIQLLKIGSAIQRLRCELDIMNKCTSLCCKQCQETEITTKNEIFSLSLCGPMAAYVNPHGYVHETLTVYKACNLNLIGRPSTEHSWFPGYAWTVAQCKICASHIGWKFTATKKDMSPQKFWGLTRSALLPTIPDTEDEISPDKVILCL
From the text: Bortez=bortezomib; MG132=proteasome inhibitor; MLN4924=NEDD8 inhibitor.
This assay is a standard Western blot assay for expression of CRBN relative to vinculin.
[…] 0.1 percent DMSO was used as a vehicle control.

cereblon (CRBN) = cereblon (CRBN) (Homo sapiens, UniProt Q96SW2); assay: Kd and % inhibition from FI; type: binding
Sequence of cereblon (CRBN) (Q96SW2 whole entry, species assumed): as the sequence (Q96SW2 whole entry) above

[1] = cell does not state FI or ITC, read-out: Kd (A) FI/ITC

remaining activity at 10 µM (CRBN) [%] | remaining activity at 0.01 µM (CRBN) [%] | SMILES | other results
133 | 116 | O=C1CCC(NC(=O)CCCCCCC(=O)NC2CCC(=O)NC2=O)C(=O)N1 (stereo not shown) [XS01-093, N^1,N^8-Bis(2,6-dioxopiperidin-3-yl)octanediamide] | –
104 | 84.6 | O=C1CCC(NC(=O)CCCC(=O)NC2CCC(=O)NC2=O)C(=O)N1 (stereo not shown) [XS01-095, N^1,N^5-Bis(2,6-dioxopiperidin-3-yl)glutaramide] | –
132 | 213 | O=C1CCC(N2Cc3c(NC(=O)CCCc4cn(CC(=O)Nc5cccc6c5CN(C5CCC(=O)NC5=O)C6=O)nn4)cccc3C2=O)C(=O)N1 (stereo not shown) [XS01-109, N-(2-(2,6-Dioxopiperidin-3-yl)-1-oxoisoindolin-4-yl)-4-(1-(2-((2-(2,6-dioxopiperidin-3-yl)-1-oxoisoindolin-4-yl)amino)-2-oxoethyl)-1H-1,2,3-triazol-4-yl)butanamide] | –
106 | 225 | O=C1CCC(N2Cc3c(NC(=O)CCc4cn(CC(=O)Nc5cccc6c5CN(C5CCC(=O)NC5=O)C6=O)nn4)cccc3C2=O)C(=O)N1 (stereo not shown) [XS01-113, N-(2-(2,6-dioxopiperidin-3-yl)-1-oxoisoindolin-4-yl)-3-(1-(2-((2-(2,6-dioxopiperidin-3-yl)-1-oxoisoindolin-4-yl)amino)-2-oxoethyl)-1H-1,2,3-triazol-4-yl)propanamide] | –
151 | 255 | O=C1CCC(N2Cc3c(NC(=O)CCCc4cn(CC(=O)Nc5cccc6c5C(=O)N(C5CCC(=O)NC5=O)C6=O)nn4)cccc3C2=O)C(=O)N1 (stereo not shown) [XS01-122, 4-(1-(2-((2-(2,6-Dioxopiperidin-3-yl)-1,3-dioxoisoindolin-4-yl)amino)-2-oxoethyl)-1H-1,2,3-triazol-4-yl)-N-(2-(2,6-dioxopiperidin-3-yl)-1-oxoisoindolin-4-yl)butanamide] | –
151 | 243 | Cc1nc2cccc(NC(=O)Cn3cc(CCCC(=O)Nc4cccc5c4CN(C4CCC(=O)NC4=O)C5=O)nn3)c2c(=O)n1C1CCC(=O)NC1=O (stereo not shown) [XS01-123, N-(2-(2,6-Dioxopiperidin-3-yl)-1-oxoisoindolin-4-yl)-4-(1-(2-((3-(2,6-dioxopiperidin-3-yl)-2-methyl-4-oxo-3,4-dihydroquinazolin-5-yl)amino)-2-oxoethyl)-1H-1,2,3-triazol-4-yl)butanamide] | –
153 | 196 | O=C1CCC(N2Cc3c(NC(=O)CCc4cn(CC(=O)Nc5cccc6c5C(=O)N(C5CCC(=O)NC5=O)C6=O)nn4)cccc3C2=O)C(=O)N1 (stereo not shown) [XS01-125, 3-(1-(2-((2-(2,6-Dioxopiperidin-3-yl)-1,3-dioxoisoindolin-4-yl)amino)-2-oxoethyl)-1H-1,2,3-triazol-4-yl)-N-(2-(2,6-dioxopiperidin-3-yl)-1-oxoisoindolin-4-yl)propanamide] | –
131 | 207 | O=C1CCC(N2C(=O)c3cccc(NC(=O)CCc4cn(CC(=O)Nc5cccc6c5C(=O)N(C5CCC(=O)NC5=O)C6=O)nn4)c3C2=O)C(=O)N1 (stereo not shown) [XS01-126, N-(2-(2,6-Dioxopiperidin-3-yl)-1,3-dioxoisoindolin-4-yl)-3-(1-(2-((2-(2,6-dioxopiperidin-3-yl)-1,3-dioxoisoindolin-4-yl)amino)-2-oxoethyl)-1H-1,2,3-triazol-4-yl)propanamide] | –
175 | 228 | Cc1nc2cccc(NC(=O)Cn3cc(CCC(=O)Nc4cccc5c4CN(C4CCC(=O)NC4=O)C5=O)nn3)c2c(=O)n1C1CCC(=O)NC1=O (stereo not shown) [XS01-127, N-(2-(2,6-Dioxopiperidin-3-yl)-1-oxoisoindolin-4-yl)-3-(1-(2-((3-(2,6-dioxopiperidin-3-yl)-2-methyl-4-oxo-3,4-dihydroquinazolin-5-yl)amino)-2-oxoethyl)-1H-1,2,3-triazol-4-yl)propanamide] | –
98.3 | 199 | Cc1nc2cccc(NC(=O)CCc3cn(CC(=O)Nc4cccc5nc(C)n(C6CCC(=O)NC6=O)c(=O)c45)nn3)c2c(=O)n1C1CCC(=O)NC1=O (stereo not shown) [XS01-132, N-(3-(2,6-dioxopiperidin-3-yl)-2-methyl-4-oxo-3,4-dihydroquinazolin-5-yl)-3-(1-(2-((3-(2,6-dioxopiperidin-3-yl)-2-methyl-4-oxo-3,4-dihydroquinazolin-5-yl)amino)-2-oxoethyl)-1H-1,2,3-triazol-4-yl)propanamide] | –

More lines, now with the values behind:

SMILES | remaining activity at 10 µM (CRBN) [%] | remaining activity at 0.01 µM (CRBN) [%] | other results
O=C1CCC(N2C(=O)c3cccc(NC(=O)CCCCCCC(=O)Nc4cccc5c4C(=O)N(C4CCC(=O)NC4=O)C5=O)c3C2=O)C(=O)N1 (stereo not shown) | 11.7 | 44.2 | % inhibition @ 200 uM from *FI (cereblon (CRBN)): n.b.
O=C1CCC(N2C(=O)c3cccc(NC(=O)CCCCCCCC(=O)Nc4cccc5c4C(=O)N(C4CCC(=O)NC4=O)C5=O)c3C2=O)C(=O)N1 (stereo not shown) | 6.19 | 29.8 | % inhibition @ 200 uM from *FI (cereblon (CRBN)): n.b
Cc1sc2c(c1C)C(c1ccc(Cl)cc1)=N[C@H](CC(=O)NCCCCC(=O)NC1CCC(=O)NC1=O)c1nnc(C)n1-2 (stereo partly shown) [EC2-092] | – | – | Kd (cereblon (CRBN); [1]): 226 ± 21.6 µM
Cc1ncsc1-c1ccc(CNC(=O)[C@@H]2C[C@@H](O)CN2C(=O)[C@@H](NC(=O)COCCOCCOCCOCCCc2cccc3c2CN(C2CCC(=O)NC2=O)C3=O)C(C)(C)C)cc1 (stereo partly drawn) [SR3-108, (2S,4R)-1-((2S)-2-(tert-Butyl)-18-(2-(2,6-dioxopiperidin-3-yl)-1-oxoisoindolin-4-yl)-4-oxo-6,9,12,15-tetraoxa-3-azaoctadecanoyl)-4-hydroxy-N-(4-(4-methylthiazol-5-yl)benzyl)pyrrolidine-2-carboxamide] | – | – | Kd (cereblon (CRBN); FI, read-out: Kd (FI) (converted)): 13.6 ± 1.51 µM
O=C1CCC(NC(=O)c2cccc(NC(=O)CCCCCCC(=O)Nc3cccc(C(=O)NC4CCC(=O)NC4=O)c3)c2)C(=O)N1 (stereo not shown) [XS01-050, N^1,N^8-Bis(3-((2,6-dioxopiperidin-3-yl)carbamoyl)phenyl)octanedimide] | 20 | 168 | –
Cc1nc2c(NC(=O)c3ccc(C(=O)Nc4cccc5c(=O)n(C6CCC(=O)NC6=O)c(C)nc45)cc3)cccc2c(=O)n1C1CCC(=O)NC1=O (stereo not shown) [XS01-059] | 356 | 69.2 | CRBN Degradation ** (WB) (CRBN; grade (+) to (++++) or words, key not given): No Degradation
O=C1C[C@H](NC(=O)c2cccc(NC(=O)CCCCCCC(=O)Nc3cccc(C(=O)N[C@H]4CC(=O)NC4=O)c3)c2)C(=O)N1 [XS01-066, N^1,N^8-Bis(3-(((S)-2,5-dioxopyrrolidin-3-yl)carbamoyl)phenyl)octanediamide] | 157 | – | –
O=C1CCC(NC(=O)c2cccc(NC(=O)CCCCCCCCC(=O)Nc3cccc(C(=O)NC4CCC(=O)NC4=O)c3)c2)C(=O)N1 (stereo not shown) [XS01-075, N^1,N^10-Bis(3-((2,6-dioxopiperidin-3-yl)carbamoyl)phenyl)decanediamide] | 63.4 | – | –
O=C1C[C@H](NC(=O)CCCCCCCCC(=O)N[C@H]2CC(=O)NC2=O)C(=O)N1 [XS01-081, N^1,N^10-Bis((S)-2,5-dioxopyrrolidin-3-yl)decanediamide] | 35 | – | –
Cc1sc2c(c1C)C(c1ccc(Cl)cc1)=N[C@H](CC(=O)NCCCCC(=O)N[C@H]1CC(=O)NC1=O)c1nnc(C)n1-2 [XS01-089] | – | – | Kd (cereblon (CRBN); [1]): 353 ± 108 µM
